Values of other authors in patent US7202219B1, “Use of D-tagatose as a prebiotic food component” (priority 1998, dated 2007).

Tested on: human faecal incubations
Conditions: cited from earlier work; for proportion of butyrate on fermentation: human faecal in vitro system (Mortensen et al. 1988)

Structure (SMILES) | proportion of butyrate on fermentation | butyrate on in vitro incubation (Rapaille and Bornet 1997) [%]
O=C(O)[C@H]1OC(O)[C@H](O)[C@@H](O)[C@@H]1O (stereo partly drawn) [glucoronic acid] | high proportion of butyrate | 
OC[C@@H](O)[C@@H](O[C@H]1O[C@H](CO)[C@@H](O)[C@H](O)[C@H]1O)[C@H](O)[C@@H](O)CO [maltitol] |  | 10
OC[C@@H](O)[C@@H](O)[C@H](O)[C@@H](O)CO [sorbitol] | high proportion of butyrate | 
